Results taken from US20100298141A1, “SUBSTITUTED PYRIDINE N-OXIDE HERBICIDES” (E. I. DU PONT DE NEMOURS AND COMPANY, priority 2007, published 2010).

Key:
[1] = test system: barnyardgrass; test: Test A pre-/postemergence greenhouse test; type: in vivo, Echinochloa crus-galli; settings: for Plant response rating, Barnyardgrass: 0 to 100 scale where 0 is no effect and 100 is complete control; for Barnyardgrass plant response rating: 0 to 100 scale
Method in brief: (§1)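 Sowing in loam/sand; same-day pre (directed soil spray) and post (foliar, 1–2 leaf, 2–10 cm) treatment with surfactant-containing non-phytotoxic solvent formulation; ~10 days in greenhouse; eye-scored injury against untreated plants.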

[2] = test system: umbrella sedge; test: Test C flooded paddy test; type: in vivo, Cyperus difformis; settings: Flood
Method in brief: (§2)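 In-water treatment: compound dosed into 3 cm flood over soil, water level unchanged throughout. Controls run alongside; visual assessment at day 13–15.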

[3] = test system: wheat; test: Test A pre-/postemergence greenhouse test; type: in vivo, Triticum aestivum; settings: for Plant response rating, Wheat: 0 to 100 scale where 0 is no effect and 100 is complete control; for Wheat plant response rating: 0 to 100 scale
Method in brief: as §1

[4] = test system: duck salad; test: Test C flooded paddy test; type: in vivo, Heteranthera limosa; settings: Flood
Method in brief: as §2

[5] = test system: rice; test: Test C flooded paddy test; type: in vivo, Oryza sativa; settings: Flood
Method in brief: as §2

[6] = test system: redroot pigweed; test: Test A pre-/postemergence greenhouse test; type: in vivo, Amaranthus retroflexus; settings: for Plant response rating, Pigweed: 0 to 100 scale where 0 is no effect and 100 is complete control; for Pigweed plant response rating: 0 to 100 scale
Method in brief: as §1

[7] = test system: velvetleaf; test: Test A pre-/postemergence greenhouse test; type: in vivo, Abutilon theophrasti; settings: for Plant response rating, Velvetleaf: 0 to 100 scale where 0 is no effect and 100 is complete control; for Velvetleaf plant response rating: 0 to 100 scale
Method in brief: as §1

[8] = test system: barnyardgrass; test: Test C flooded paddy test; type: in vivo, Echinochloa crus-galli; settings: Flood
Method in brief: as §2

[9] = test system: corn; test: Test A pre-/postemergence greenhouse test; type: in vivo, Zea mays; settings: for Plant response rating, Corn: 0 to 100 scale where 0 is no effect and 100 is complete control; for Corn plant response rating: 0 to 100 scale
Method in brief: as §1

[10] = test system: crabgrass; test: Test A pre-/postemergence greenhouse test; type: in vivo, Digitaria sanguinalis; settings: for Plant response rating, Crabgrass, Large: 0 to 100 scale where 0 is no effect and 100 is complete control; for Crabgrass, Large plant response rating: 0 to 100 scale
Method in brief: as §1

[11] = test system: giant foxtail; test: Test A pre-/postemergence greenhouse test; type: in vivo, Setaria faberi; settings: for Plant response rating, Foxtail, Giant: 0 to 100 scale where 0 is no effect and 100 is complete control; for Foxtail, Giant plant response rating: 0 to 100 scale
Method in brief: as §1

[12] = test system: morningglory; test: Test A pre-/postemergence greenhouse test; type: in vivo, Ipomoea spp.; settings: for Plant response rating, Morningglory: 0 to 100 scale where 0 is no effect and 100 is complete control; for Morningglory plant response rating: 0 to 100 scale
Method in brief: as §1

[13] = Postemergence, 500 g ai/ha, 0 is no effect, 100 is complete control
[14] = Preemergence, 125 g ai/ha, 0 no effect, 100 complete control
[15] = 250 g ai/ha, scale 0 to 100, 0 no effect, 100 complete control, 13 to 15 days
[16] = 62 g ai/ha, scale 0 to 100, 0 no effect, 100 complete control, 13 to 15 days
[17] = 62 g ai/ha, scale 0 to 100 (0 no effect, 100 complete control)

Row | SMILES | Plant response rating, Barnyardgrass ([1]; Postemergence, 125 g ai/ha) | Barnyardgrass plant response rating [1, 13] | Barnyardgrass plant response rating [1, 14] | Plant response rating, Barnyardgrass ([1]; Preemergence, 500 g ai/ha) | Plant response rating, Sedge, Umbrella [2, 15] | Plant response rating, Wheat ([3]; Postemergence, 125 g ai/ha) | Wheat plant response rating [3, 13] | Wheat plant response rating [3, 14] | Plant response rating, Wheat ([3]; Preemergence, 500 g ai/ha) | Plant response rating, Ducksalad [4, 15] | Plant response rating, Rice [5, 15] | Plant response rating, Pigweed ([6]; Postemergence, 125 g ai/ha) | Pigweed plant response rating [6, 13] | Pigweed plant response rating [6, 14] | Plant response rating, Pigweed ([6]; Preemergence, 500 g ai/ha) | Plant response rating, Velvetleaf ([7]; Postemergence, 125 g ai/ha) | Velvetleaf plant response rating [7, 13] | Velvetleaf plant response rating [7, 14] | Plant response rating, Velvetleaf ([7]; Preemergence, 500 g ai/ha) | Plant response rating, Barnyardgrass [8, 15] | also measured
1 | [O-][n+]1ccccc1[S+]([O-])C(Cl)c1c(C(F)(F)F)nn(CC(F)(F)F)c1Cl (stereo not shown) [Compound 45] | 40 | 70 | 0 | 100 | 80 | 0 | 0 | 0 | 30 | 75 | 25 | 40 | 60 | 50 | 100 | 30 | 40 | 0 | 50 | 20 | Plant response rating, Ducksalad [4, 16]: 40; Plant response rating, Rice [5, 16]: 0; Plant response rating, Barnyardgrass [8, 16]: 0; Plant response rating, Corn ([9]; Postemergence, 125 g ai/ha): 0; Corn plant response rating [9, 13]: 0; Corn plant response rating [9, 14]: 0; Plant response rating, Corn ([9]; Preemergence, 500 g ai/ha): 0; Plant response rating, Crabgrass, Large ([10]; Postemergence, 125 g ai/ha): 60; Crabgrass, Large plant response rating [10, 13]: 80; Crabgrass, Large plant response rating [10, 14]: 60; Plant response rating, Crabgrass, Large ([10]; Preemergence, 500 g ai/ha): 80; Plant response rating, Foxtail, Giant ([11]; Postemergence, 125 g ai/ha): 50; Foxtail, Giant plant response rating [11, 13]: 80; Foxtail, Giant plant response rating [11, 14]: 70; Plant response rating, Foxtail, Giant ([11]; Preemergence, 500 g ai/ha): 100; Plant response rating, Morningglory ([12]; Postemergence, 125 g ai/ha): 0; Morningglory plant response rating [12, 13]: 40; Morningglory plant response rating [12, 14]: 50; Plant response rating, Morningglory ([12]; Preemergence, 500 g ai/ha): 60
2 | Cc1cc(S(=O)(=O)Cc2c(C(F)(F)F)nn(C)c2OCC(F)(F)F)[n+]([O-])cc1Cl [Compound 71] | 40 | 80 | 40 | 90 | 30 | 30 | 50 | 0 | 40 | 70 | 60 | 50 | 70 | 70 | 100 | 20 | 50 | 0 | 30 | 20 | Plant response rating, Sedge, Umbrella [2, 17]: 0; Plant response rating, Ducksalad [4, 17]: 0; Plant response rating, Rice [5, 17]: 30; Plant response rating, Barnyardgrass [8, 17]: 20; Plant response rating, Corn ([9]; Postemergence, 125 g ai/ha): 0; Corn plant response rating [9, 13]: 30; Corn plant response rating [9, 14]: 20; Plant response rating, Corn ([9]; Preemergence, 500 g ai/ha): 20; Plant response rating, Crabgrass, Large ([10]; Postemergence, 125 g ai/ha): 30; Crabgrass, Large plant response rating [10, 13]: 70; Crabgrass, Large plant response rating [10, 14]: 50; Plant response rating, Crabgrass, Large ([10]; Preemergence, 500 g ai/ha): 100; Plant response rating, Foxtail, Giant ([11]; Postemergence, 125 g ai/ha): 40; Foxtail, Giant plant response rating [11, 13]: 80; Foxtail, Giant plant response rating [11, 14]: 90; Plant response rating, Foxtail, Giant ([11]; Preemergence, 500 g ai/ha): 100; Plant response rating, Morningglory ([12]; Postemergence, 125 g ai/ha): 0; Morningglory plant response rating [12, 13]: 30; Morningglory plant response rating [12, 14]: 0; Plant response rating, Morningglory ([12]; Preemergence, 500 g ai/ha): 10
